These results are taken from US7626026B2, “Pyrrolo-indole and pyrrolo-quinoline derivatives as prodrugs for tumour treatment” (University of Bradford, priority 2001, dated 2009).

Structures are written as SMILES. Marks after values point to notes of the source that are not given here.

The data set deals with Chinese Hamster Ovary (CHO) cell. Kind of data set: MTT cytotoxicity in CHO cells, with and without activation by NADPH-supplemented rat liver microsomes. It counts as cell-based. The note with it: for IC50: Cricetulus griseus, CHO, cells incubated 24 hours, MTT, mean±sd for three experiments. Here is the method: Test compound (synthesised in example 3) activation by CYP enzymes was carried out using NADPH supplemented rat liver microsomes; Incubation mixtures comprised microsomal protein (1 mg/ml), reduced-nicotinamide adenine dinucleotide phosphate (NADPH, 10 mM) and phosphate buffer (pH7.4, 100 mM). Test compound (0.01-100 μM final concentration) in DMSO (20 μl) was added to the microsomal incubation mixtures (0.5 ml) and incubated for 60 min at 37C. Control incubates contained test compound and microsomal incubation mixture terminated at 0 time. All incubations were terminated by addition of an equal volume of ice-cold acetonitrile and microfuged for 3 min. Aliquots of the supernatant were added to cells in culture.
Chinese Hamster Ovary (CHO) cell were grown in MEM supplemented with. 10% dialysed FBS and G418 (400 μg/ml). All cells were seeded at an initial density of 1000 cells/well in 96-well-plates, incubation at 37° C. for 24 hours. Aliquots (0.1 ml) of the test compound/microsomal/acetonitrile supernatnant was then added to the CHO cells. Cells were then incubated for 24 hours at 37° C., 5% CO2. After this time period MTT (50 μl; 2 mg/ml stock solution) was added to each well and cells were incubated for a further 4 hours. During this time period MTT, a hydrogen acceptor tetrazolium salt, is reduced to formazan dye by mitochondrial dehydrogenase of viable cells. The media was aspirated from cells and DMSO (100 μl/well) added to solubilise the coloured formazan dye. Absorbance of the formazan dye in the 96-well-plates was then determined at 550 nm. The effect of microsomal activation by the test compound on the arrest of CHO cell growth could be determined by comparing the IC50 (concentration that inhibited cell growth by 50%) with and without microsomal incubation.
Effect of compound 3.8 and its metabolism (activation) product on the survival of Chinese hamster ovary cells in culture. Cells were incubated for 24 hours with supernatants from reaction mixtures of compound 3.8 with NADPH fortified rat liver microsomes. […] Values are expressed as the mean±sd for three experiments. […]
On the technique in general: Liver microsomes are a subcellular fraction often used to study metabolism.

`CCOC(=O)c1cc2c3c(ccc2[nH]1)N(C(=O)c1cc2cc(OC)ccc2[nH]1)CC3CCl` (stereo not drawn) [3.8, Ethyl 1-(chloromethyl)-3-((5-methoxy-1H-indol-2-yl)carbonyl)-1,2-dihydro-3H-pyrrolo[3,2-e]indole-7-carboxylate]: where the note is “CHO cells, IC50 −activation / IC50 +activation”, the “AF (activity factor, ratio of IC50 cytotoxicity values obtained for ± activation)” value is reported as 71.7*. Further, the 50% inhibitory concentration (IC50) came out at 4300 ± 410 nM (control incubate terminated at 0 time (no microsomal activation)) and 60 ± 20 nM (supernatant after 60 min incubation at 37C with NADPH-fortified rat liver microsomes).

As a reminder, the IC50 is the concentration that inhibits the measured activity by half. A lower IC50 goes with higher potency.
